Assays:
[1] = target: T1, Steroid Delta-isomerase (Pseudomonas putida, UniProt P07445); assay: Binding affinity to Pseudomonas putida KSI by isothermal titration calorimetry
T1 sequence (P07445 whole entry): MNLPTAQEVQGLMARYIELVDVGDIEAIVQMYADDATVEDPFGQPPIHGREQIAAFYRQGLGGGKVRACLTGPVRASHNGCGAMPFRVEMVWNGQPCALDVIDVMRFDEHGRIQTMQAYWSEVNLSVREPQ

[2] = target: T1, Steroid Delta-isomerase; assay: Binding affinity to Pseudomonas putida KSI by surface plasmon resonance analysis
[3] = target: T2, Steroid Delta-isomerase (Pseudomonas putida) (UniProt P07445); assay: Ratio of KD for Pseudomonas putida KSI by surface plasmon resonance analysis to KD for Pseudomonas putida KSI by surface plasmon resonance analysis
T2 sequence (whole entry): T1 sequence (P07445 whole entry)

NC(=O)Nc1cccc(C(F)(F)F)c1
Kd [1]: 46 µM

NC(=O)/C=C/c1cccc(C(F)(F)F)c1
Kd [1]: 50 µM

Cc1nnc2ccc(N3CCCC3)nn12
Kd [1]: 22 µM

C[C@H](CCC(=O)O)[C@H]1CC[C@H]2[C@@H]3CC[C@@H]4C[C@H](O)CC[C@]4(C)[C@H]3C[C@H](O)[C@]12C [DEOXYCHOLIC ACID]
Kd [2]: 16 µM | Kd [1]: 16 µM

CN1CCC2(C)c3cc(O)ccc3N(C)C12 (stereo not drawn)
Ratio [3]: 1.8 | Kd [1]: 180 µM

Cn1cc(C(N)=O)c2ccccc21
Kd [1]: 63 µM

From ChEMBL document CHEMBL2321749, “Incorporation of rapid thermodynamic data in fragment-based drug discovery” (J Med Chem, 2013)
